Data published in patent publication US9340501B2, “Marinopyrrole derivatives as anticancer agents” (H. LEE MOFFITT CANCER CENTER AND RESEARCH INSTITUTE, INC., priority 2012, dated 2016).
Where “and” joins values, the source holds several entries; their conditions need not be identical. Identical values can stand only once. Like-named read-outs stand apart in the source and are kept apart here.

Experiments:
MDA-MB-468 cells = experiment: In vitro anticancer assay against MDA-MB-468 cells; format: cell-based; conditions: for inhibition at 0.5 µM: MDA-MB-468, 0.5 μM; for inhibition at 0.5 µM / inhibition at 50 µM / inhibition at 5 µM: read-out: % Inhibition at 0.5, 5, 50 μM; for inhibition at 50 µM: MDA-MB-468, 50 μM; for inhibition at 5 µM: MDA-MB-468, 5 μM
Method: The anticancer activities of the novel asymmetrical marinopyrroles described herein were evaluated against MDA-MB-468 cells (Table 1). IC50 values are reported in μM.

Bcl-2 = Bcl-2 (Homo sapiens, UniProt P10415); conditions: Tse et al. 2008; cited from earlier work
Bcl-2, sequence (P10415 whole entry, species assumed): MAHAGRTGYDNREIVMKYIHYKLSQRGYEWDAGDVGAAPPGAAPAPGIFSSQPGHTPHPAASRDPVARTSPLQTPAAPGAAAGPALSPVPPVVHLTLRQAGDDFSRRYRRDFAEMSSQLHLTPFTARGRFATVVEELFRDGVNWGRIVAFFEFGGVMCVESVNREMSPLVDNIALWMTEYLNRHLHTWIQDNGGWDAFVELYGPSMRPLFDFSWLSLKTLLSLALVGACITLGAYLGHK

Bcl-XL = Bcl-XL (Homo sapiens, UniProt Q07817); conditions: Tse et al. 2008; cited from earlier work
Bcl-XL, sequence (Q07817 whole entry, species assumed): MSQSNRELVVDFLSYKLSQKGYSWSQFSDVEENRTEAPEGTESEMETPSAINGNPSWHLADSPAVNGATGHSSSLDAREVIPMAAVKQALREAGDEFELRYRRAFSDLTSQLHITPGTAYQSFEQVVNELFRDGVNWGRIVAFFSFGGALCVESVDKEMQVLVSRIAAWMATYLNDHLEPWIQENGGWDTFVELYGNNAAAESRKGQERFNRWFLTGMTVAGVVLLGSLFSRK

Mcl-1 = Mcl-1 (Homo sapiens, UniProt Q07820); conditions: Tse et al. 2008; cited from earlier work
Mcl-1, sequence (Q07820 whole entry, species assumed): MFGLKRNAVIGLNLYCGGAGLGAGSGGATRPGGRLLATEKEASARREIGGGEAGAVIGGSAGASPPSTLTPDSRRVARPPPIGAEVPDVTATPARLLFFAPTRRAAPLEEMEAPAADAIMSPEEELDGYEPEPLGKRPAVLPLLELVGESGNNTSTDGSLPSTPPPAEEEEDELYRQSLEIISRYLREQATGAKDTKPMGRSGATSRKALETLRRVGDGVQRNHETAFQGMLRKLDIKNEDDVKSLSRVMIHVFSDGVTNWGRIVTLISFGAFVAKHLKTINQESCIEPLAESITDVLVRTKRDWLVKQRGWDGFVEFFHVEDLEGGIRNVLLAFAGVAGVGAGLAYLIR

[1] = mean of the determinations, read-out: Mean IC50
[2] = single determinations, read-out: IC50
[3] = Homo sapiens, MDA-MB-468, estimated from % inhibition at 0.5, 5, 50 μM, read-out: Est. IC50
[4] = Homo sapiens, MDA-MB-468, mean of the determinations, read-out: Mean IC50
[5] = Homo sapiens, MDA-MB-468, single determinations, read-out: IC50
[6] = estimated from % inhibition at 0.5, 5, 50 μM, read-out: Est. IC50

Structure (SMILES): O=C(c1ccccc1O)c1[nH]c(Cl)c(Cl)c1-n1c(C(=O)c2ccccc2O)cc(Cl)c1Cl (racemic) [Racemic Marinopyrrole A, reference compound]
- IC50 (MDA-MB-468 cells; [1]): 2030 ± 180 nM
- IC50 (MDA-MB-468 cells; [2]): 2190 nM and 1840 nM and 2070 nM

Structure (SMILES): O=C(c1ccccc1O)c1[nH]c(Cl)c(Cl)c1-n1c(C(=O)c2ccccc2O)cc(Cl)c1Cl [(+)-Marinopyrrole A, reference compound]
- IC50 (MDA-MB-468 cells; [1]): 1880 nM
- IC50 (MDA-MB-468 cells; [2]): 2140 nM and 1640 nM

Structure (SMILES): O=C(c1ccccc1O)c1[nH]c(Cl)c(Cl)c1-n1c(C(=O)c2ccccc2O)cc(Cl)c1Cl [(−)-Marinopyrrole A, reference compound]
- IC50 (MDA-MB-468 cells; [1]): 3170 nM
- IC50 (MDA-MB-468 cells; [2]): 3470 nM and 2870 nM

Structure (SMILES): CC1(C)CCC(c2ccc(Cl)cc2)=C(CN2CCN(c3ccc(C(=O)NS(=O)(=O)c4ccc(N[C@H](CCN5CCOCC5)CSc5ccccc5)c(S(=O)(=O)C(F)(F)F)c4)cc3)CC2)C1 [ABT-263]
- concentration that inhibits Bcl-2 (Bcl-2): subnanomolar concentrations
- concentration that inhibits Bcl-XL (Bcl-XL): subnanomolar concentrations
- activity on Mcl-1 (Mcl-1): only weakly target Mcl-1

Structure (SMILES): CN(C)CC[C@H](CSc1ccccc1)Nc1ccc(S(=O)(=O)NC(=O)c2ccc(N3CCN(Cc4ccccc4-c4ccc(Cl)cc4)CC3)cc2)cc1[N+](=O)[O-] [ABT-737]
- concentration that inhibits Bcl-2 (Bcl-2): subnanomolar concentrations
- concentration that inhibits Bcl-XL (Bcl-XL): subnanomolar concentrations
- activity on Mcl-1 (Mcl-1): only weakly target Mcl-1

Structure (SMILES): O=C(c1ccccc1O)c1[nH]c(Cl)c(Cl)c1-n1c(C(=O)c2cc(Cl)ccc2O)cc(Cl)c1Cl [Compound 1, (5-Chloro-2-hydroxyphenyl)(4,4′,5,5′-tetrachloro-2′-(2-hydroxybenzoyl)-1′H-1,3′-bipyrrol-2-yl)methanone]
- inhibition at 0.5 µM (MDA-MB-468 cells; Homo sapiens): 1.6%
- inhibition at 50 µM (MDA-MB-468 cells; Homo sapiens): 98.3%
- IC50 (MDA-MB-468 cells; [3]): 9000 nM

Structure (SMILES): O=C(c1ccccc1O)c1[nH]c(Cl)c(Cl)c1-n1c(C(=O)c2ccc(Cl)cc2O)cc(Cl)c1Cl [Compound 2, (4-Chloro-2-hydroxyphenyl)(4,4′,5,5′-tetrachloro-2′-(2-hydroxybenzoyl)-1′H-1,3′-bipyrrol-2-yl)methanone]
- IC50 (MDA-MB-468 cells; [4]): 1450 nM
- IC50 (MDA-MB-468 cells; [5]): 1720 nM
- IC50 (MDA-MB-468 cells; [2]): 1170 nM

Structure (SMILES): O=C(c1ccccc1O)c1[nH]c(Cl)c(Cl)c1-n1c(C(=O)c2cccc(Cl)c2O)cc(Cl)c1Cl [Compound 3, (3-Chloro-2-hydroxyphenyl)(4,4′,5,5′-tetrachloro-2′-(2-hydroxybenzoyl)-1′H-1,3′-bipyrrol-2-yl)methanone]
- inhibition at 0.5 µM (MDA-MB-468 cells; Homo sapiens): 7%
- inhibition at 5 µM (MDA-MB-468 cells; Homo sapiens): 83.4%
- inhibition at 50 µM (MDA-MB-468 cells; Homo sapiens): 100%
- IC50 (MDA-MB-468 cells; [3]): 1000 nM
- IC50 (MDA-MB-468 cells; [4]): 2170 nM
- IC50 (MDA-MB-468 cells; [5]): 1950 nM
- IC50 (MDA-MB-468 cells; [2]): 2390 nM

Structure (SMILES): COc1ccccc1C(=O)c1[nH]c(Cl)c(Cl)c1-n1c(C(=O)c2ccc(Cl)cc2OC)cc(Cl)c1Cl [Compound 5, (4-Chloro-2-methoxyphenyl)(4,4′,5,5′-tetrachloro-2′-(2-methoxybenzoyl)-1′H-[1,3′-bipyrrole]-2-yl)methanone]
- IC50 (MDA-MB-468 cells; [4]): 13200 nM
- IC50 (MDA-MB-468 cells; [5]): 14000 nM
- IC50 (MDA-MB-468 cells; [2]): 12400 nM

Structure (SMILES): COc1ccccc1C(=O)c1[nH]c(Cl)c(Cl)c1-n1c(C(=O)c2cc(F)ccc2OC)cc(Cl)c1Cl [Compound 7]
- IC50 (MDA-MB-468 cells; [4]): 11000 nM
- IC50 (MDA-MB-468 cells; [5]): 11700 nM
- IC50 (MDA-MB-468 cells; [2]): 10200 nM

Structure (SMILES): O=C(c1ccccc1O)c1[nH]c(Cl)c(Cl)c1-n1c(C(=O)c2cc(F)ccc2O)cc(Cl)c1Cl [Compound 8]
- IC50 (MDA-MB-468 cells; [4]): 2140 nM
- IC50 (MDA-MB-468 cells; [5]): 2230 nM
- IC50 (MDA-MB-468 cells; [2]): 2050 nM

Structure (SMILES): COc1cc(OC)c(C(=O)c2cc(Cl)c(Cl)n2-c2c(C(=O)c3ccccc3OC)[nH]c(Cl)c2Cl)cc1Cl [Compound 9]
- IC50 (MDA-MB-468 cells; [5]): 20400 nM

Structure (SMILES): O=C(c1ccccc1O)c1[nH]c(Cl)c(Cl)c1-n1c(C(=O)c2cc3ccccc3c(Cl)c2O)cc(Cl)c1Cl [Compound 10]
- IC50 (MDA-MB-468 cells; [4]): 1700 nM
- IC50 (MDA-MB-468 cells; [5]): 1940 nM
- IC50 (MDA-MB-468 cells; [2]): 1460 nM

Structure (SMILES): COc1ccccc1C(=O)c1[nH]c(Cl)c(Cl)c1-n1c(C(=O)c2cc(Cl)c3ccccc3c2O)cc(Cl)c1Cl [Compound 11]
- IC50 (MDA-MB-468 cells; [5]): 10700 nM

Structure (SMILES): O=C(c1ccccc1O)c1[nH]c(Cl)c(Cl)c1-n1c(C(=O)c2cc(Cl)c3ccccc3c2O)cc(Cl)c1Cl [Compound 12]
- IC50 (MDA-MB-468 cells; [4]): 1890 nM
- IC50 (MDA-MB-468 cells; [5]): 1900 nM

Structure (SMILES): COc1ccccc1C(=O)c1[nH]c(Cl)c(Cl)c1-n1c(C(=O)c2cccc(Cl)c2O)cc(Cl)c1Cl [Compound 21]
- inhibition at 0.5 µM (MDA-MB-468 cells; Homo sapiens): -0.4%
- inhibition at 50 µM (MDA-MB-468 cells; Homo sapiens): 99.1%
- IC50 (MDA-MB-468 cells; [3]): 25000 nM

Structure (SMILES): COc1ccccc1C(=O)c1[nH]c(Cl)c(Cl)c1-n1c(C(=O)c2cc(F)ccc2O)cc(Cl)c1Cl [Compound 25]
- inhibition at 0.5 µM (MDA-MB-468 cells; Homo sapiens): 2.4%
- inhibition at 50 µM (MDA-MB-468 cells; Homo sapiens): 95.7%
- IC50 (MDA-MB-468 cells; [3]): 28000 nM

Structure (SMILES): O=C(c1ccccc1O)c1[nH]c(Cl)c(Cl)c1-n1c(C(=O)c2c([O-])cccc2F)cc(Cl)c1Cl.[Na+] [Compound 27]
- % Inhibition at 0.5, 5, 50 μM (MDA-MB-468 cells; 0.5 μM): 3.9%
- inhibition at 50 µM (MDA-MB-468 cells; Homo sapiens): 96.3%
- IC50 (MDA-MB-468 cells; [6]): 25000 nM

Structure (SMILES): O=C(c1ccccc1O)c1[nH]c(Cl)c(Cl)c1-n1c(C(=O)c2ccc(F)cc2O)cc(Cl)c1Cl [Compound 30]
- inhibition at 0.5 µM (MDA-MB-468 cells; Homo sapiens): 10.8%
- inhibition at 5 µM (MDA-MB-468 cells; Homo sapiens): 78.6%
- inhibition at 50 µM (MDA-MB-468 cells; Homo sapiens): 94.7%
- IC50 (MDA-MB-468 cells; [3]): 1000 nM
- IC50 (MDA-MB-468 cells; [4]): 1040 nM
- IC50 (MDA-MB-468 cells; [5]): 940 nM
- IC50 (MDA-MB-468 cells; [2]): 1140 nM

Structure (SMILES): O=C(c1ccccc1O)c1[nH]c(Cl)c(Cl)c1-n1c(C(=O)c2ccc(F)cc2[O-])cc(Cl)c1Cl.[Na+] [Compound 31]
- % Inhibition at 0.5, 5, 50 μM (MDA-MB-468 cells; 0.5 μM): 5.6%
- % Inhibition at 0.5, 5, 50 μM (MDA-MB-468 cells; 5 μM): 63.5%
- % Inhibition at 0.5, 5, 50 μM (MDA-MB-468 cells; 50 μM): 99.4%
- IC50 (MDA-MB-468 cells; [6]): 2000 nM
- IC50 (MDA-MB-468 cells; [1]): 3150 nM
- IC50 (MDA-MB-468 cells; [2]): 3970 nM and 2330 nM

Structure (SMILES): O=C(c1ccccc1O)c1[nH]c(Cl)c(Cl)c1-n1c(C(=O)c2c(O)cccc2F)cc(Cl)c1Cl [Compound 32]
- % Inhibition at 0.5, 5, 50 μM (MDA-MB-468 cells; 0.5 μM): 0%
- % Inhibition at 0.5, 5, 50 μM (MDA-MB-468 cells; 50 μM): 87.7%
- IC50 (MDA-MB-468 cells; [6]): 12000 nM

Structure (SMILES): O=C(c1ccccc1O)c1[nH]c(Cl)c(Cl)c1-n1c(C(=O)c2cc(Br)ccc2O)cc(Cl)c1Cl [Compound 33]
- inhibition at 0.5 µM (MDA-MB-468 cells; Homo sapiens): 10.8%
- inhibition at 5 µM (MDA-MB-468 cells; Homo sapiens): 58.7%
- inhibition at 50 µM (MDA-MB-468 cells; Homo sapiens): 99.3%
- IC50 (MDA-MB-468 cells; [3]): 2000 nM
- IC50 (MDA-MB-468 cells; [5]): 3870 nM

Structure (SMILES): COc1ccc(F)cc1C(=O)c1cc(Cl)c(Cl)n1-c1c(C(=O)O)[nH]c(Cl)c1Cl [Compound 34]
- IC50 (MDA-MB-468 cells; [5]): 33500 nM

Structure (SMILES): COc1ccccc1C(=O)c1[nH]c(Cl)c(Cl)c1-n1c(C(=O)c2cccc3ccccc23)cc(Cl)c1Cl [Compound 35]
- IC50 (MDA-MB-468 cells; [5]): 10500 nM

Structure (SMILES): CCOC(=O)c1[nH]c(Cl)c(Cl)c1-n1c(C(=O)c2ccccc2O)cc(Cl)c1Cl [Compound 37]
- IC50 (MDA-MB-468 cells; [5]): 15700 nM

Structure (SMILES): CCOC(=O)c1cc(Cl)c(Cl)n1-c1c(C(=O)c2ccccc2O)[nH]c(Cl)c1Cl [Compound 38]
- IC50 (MDA-MB-468 cells; [4]): 2090 nM
- IC50 (MDA-MB-468 cells; [5]): 2730 nM
- IC50 (MDA-MB-468 cells; [2]): 1440 nM

Structure (SMILES): COc1ccc(C(=O)c2[nH]c(Cl)c(Cl)c2-n2c(C(=O)c3ccc(OC)cc3)cc(Cl)c2Cl)cc1 [Compound 39]
- IC50 (MDA-MB-468 cells; [5]): 18300 nM
